Data reported in patent US20210322582A1, “RADIOACTIVE IMIDAZOTHIADIAZOLE DERIVATIVE COMPOUND” (Nihon Medi-Physics Co., Ltd., priority 2018, published 2021).

Columns and labels:
Assay type in all cases: in vivo
[1] = test system: HT-29 tumor and MDA-MB-231 tumor; test: CA-IX selectivity of [^111In]ITDA1 in cancer-bearing mouse (HT-29 vs MDA-MB-231); conditions: 24 hours from administration
Procedure: HT-29 cells (5×10^6 cells/mouse) and MDA-MB-231 cells (5×10^6 cells/mouse) were subcutaneously inoculated into the left shoulders of 5-week old male BALB/c nude mice, respectively. A saline solution (100 μL) in which [^111In]ITDA1 (37 kBq) had been dissolved was administered to each of the cancer-bearing mice (n=5) via the tail vein. The mice were slaughtered after the lapse of 24 hours from the administration, and the blood, transplanted tumor, and muscle were recovered from each of the mice. The weight of each organ was measured, and the amount of radioactivity in each organ was measured by using a gamma counter. The accumulation of radioactivity in each organ was expressed by % ID (injected dose)/g obtained by dividing the ratio of the amount of radioactivity of each organ to the administered amount of radioactivity by the organ weight.

HT-29 tumor = test: Biodistribution of [^111In]ITDA2 in HT-29 tumor cancer-bearing mouse; conditions: HT-29 tumor mouse
Procedure: (§1) HT-29 cells (5×10^6 cells/mouse) and MDA-MB-231 cells (1×10^7 cells/mouse) were subcutaneously inoculated into the left shoulders of 5-week old male BALB/c nude mice, respectively, and the mice were used when the tumor diameter reached 6 to 10 mm. A saline solution (100 μL) in which [^111In]ITDA2 (40 kBq) had been dissolved was administered to each of the HT-29 tumor or MDA-MB-231 tumor cancer-bearing mice (n=5) via the tail vein. The HT-29 tumor cancer-bearing mice were slaughtered after the lapse of 1, 4, 8, and 24 hours from the administration, the MDA-MB-231 tumor cancer-bearing mouse was slaughtered after the lapse of 24 hours from the administration, and the blood, spleen, pancreas, stomach, intestines, kidney, liver, heart, lungs, brain, tumor, and muscle were recovered from each of the mice. The weight of each organ was measured, and the amount of radioactivity in each organ was measured by using a gamma counter. The accumulation of radioactivity in each organ except for stomach was expressed by % injected dose/g organ obtained by dividing the ratio of the amount of radioactivity of each organ to the administered amount of radioactivity by the organ weight. The stomach was expressed by % injected dose.

MDA-MB-231 tumor = test: Biodistribution of [^111In]ITDA2 in MDA-MB-231 tumor cancer-bearing mouse; conditions: MDA-MB-231 tumor mouse, 24 hours
Procedure: as §1

SMILES: NS(=O)(=O)c1nn2cc(-c3ccc(NC(=O)CN4CCN(CC(=O)O)CCN(CC(=O)O)CCN(CC(=O)O)CC4)cc3)nc2s1.[111In+3] [[^111In]ITDA1, [^111In]indium(III)2,2′,2″-(10-(2-oxo-2-((4-(2-sulfamoylimidazo[2,1-b][1,3,4]thiadiazol-6-yl)phenyl)amino)ethyl)-1,4,7,10-tetraazacyclododecan-1,4,7-triyl) triacetic acid]
- CA-IX selective tumor accumulation [1]: confirmed
- Transplanted tumor/blood ratio, HT-29 vs MDA-MB-231 [1]: significant difference was similarly observed
- Transplanted tumor/muscle ratio, HT-29 vs MDA-MB-231 [1]: significant difference was similarly observed
- Amount accumulated in the HT-29 tumor vs the MDA-MB-231 tumor ([1]; Welch's t-test, 1% significance level): significant difference was observed

SMILES: NS(=O)(=O)c1nn2cc(-c3ccc(NC(=O)CN4CCN(CC(=O)O)CCN(CC(=O)Nc5ccc(-c6cn7nc(S(N)(=O)=O)sc7n6)cc5)CCN(CC(=O)O)CC4)cc3)nc2s1.[111In+3] [[^111In]ITDA2, [^111In]indium(III)2,2′-(4,10-bis(2-oxo-2-((4-(2-sulfamoylimidazo[2,1-b][1,3,4]thiadiazol-6-yl)phenyl)amino)ethyl)-1,4,7,10-tetraazacyclododecan-1,7-diyl) diacetic acid]
- Biokinetics: Blood (HT-29 tumor; 1 hour): 0.27 ± 0.03 % injected dose/g organ
- Biokinetics: Brain (HT-29 tumor; 1 hour): 0.30 ± 0.04 % injected dose/g organ
- Biokinetics: Heart (HT-29 tumor; 1 hour): 5.64 ± 1.01 % injected dose/g organ
- Biokinetics: Intestines (HT-29 tumor; 1 hour): 11.24 ± 1.54 % injected dose/g organ
- Biokinetics: Kidney (HT-29 tumor; 1 hour): 137 ± 11.1 % injected dose/g organ
- Biokinetics: Liver (HT-29 tumor; 1 hour): 4.11 ± 0.54 % injected dose/g organ
- Biokinetics: Lungs (HT-29 tumor; 1 hour): 6.10 ± 0.97 % injected dose/g organ
- Biokinetics: Muscle (HT-29 tumor; 1 hour): 2.05 ± 0.61 % injected dose/g organ
- Biokinetics: Pancreas (HT-29 tumor; 1 hour): 20.01 ± 6.77 % injected dose/g organ
- Biokinetics: Spleen (HT-29 tumor; 1 hour): 0.40 ± 0.27 % injected dose/g organ
- Biokinetics: Stomach (HT-29 tumor; 1 hour): 3.99 ± 0.49 % injected dose
- Biokinetics: Tumor (HT-29 tumor; 1 hour): 2.11 ± 0.32 % injected dose/g organ
- Tumor/blood (HT-29 tumor; 1 hour): 7.78 ± 0.95
- Tumor/muscle (HT-29 tumor; 1 hour): 1.12 ± 0.45
- Biokinetics: Blood (HT-29 tumor; 4 hours): 0.18 ± 0.01 % injected dose/g organ
- Biokinetics: Brain (HT-29 tumor; 4 hours): 0.30 ± 0.04 % injected dose/g organ
- Biokinetics: Heart (HT-29 tumor; 4 hours): 2.81 ± 0.39 % injected dose/g organ
- Biokinetics: Intestines (HT-29 tumor; 4 hours): 15.32 ± 1.51 % injected dose/g organ
- Biokinetics: Kidney (HT-29 tumor; 4 hours): 143 ± 12.0 % injected dose/g organ
- Biokinetics: Liver (HT-29 tumor; 4 hours): 4.87 ± 1.08 % injected dose/g organ
- Biokinetics: Lungs (HT-29 tumor; 4 hours): 4.25 ± 0.76 % injected dose/g organ
- Biokinetics: Muscle (HT-29 tumor; 4 hours): 2.00 ± 0.21 % injected dose/g organ
- Biokinetics: Pancreas (HT-29 tumor; 4 hours): 20.88 ± 2.49 % injected dose/g organ
- Biokinetics: Spleen (HT-29 tumor; 4 hours): 0.13 ± 0.10 % injected dose/g organ
- Biokinetics: Stomach (HT-29 tumor; 4 hours): 5.09 ± 0.66 % injected dose
- Biokinetics: Tumor (HT-29 tumor; 4 hours): 2.47 ± 0.30 % injected dose/g organ
- Tumor/blood (HT-29 tumor; 4 hours): 13.85 ± 2.45
- Tumor/muscle (HT-29 tumor; 4 hours): 1.24 ± 0.19
- Biokinetics: Blood (HT-29 tumor; 8 hours): 0.20 ± 0.01 % injected dose/g organ
- Biokinetics: Brain (HT-29 tumor; 8 hours): 0.35 ± 0.05 % injected dose/g organ
- Biokinetics: Heart (HT-29 tumor; 8 hours): 1.89 ± 0.35 % injected dose/g organ
- Biokinetics: Intestines (HT-29 tumor; 8 hours): 15.40 ± 0.94 % injected dose/g organ
- Biokinetics: Kidney (HT-29 tumor; 8 hours): 110 ± 13.7 % injected dose/g organ
- Biokinetics: Liver (HT-29 tumor; 8 hours): 4.58 ± 0.76 % injected dose/g organ
- Biokinetics: Lungs (HT-29 tumor; 8 hours): 2.87 ± 1.08 % injected dose/g organ
- Biokinetics: Muscle (HT-29 tumor; 8 hours): 1.39 ± 0.20 % injected dose/g organ
- Biokinetics: Pancreas (HT-29 tumor; 8 hours): 13.15 ± 4.17 % injected dose/g organ
- Biokinetics: Spleen (HT-29 tumor; 8 hours): 0.32 ± 0.20 % injected dose/g organ
- Biokinetics: Stomach (HT-29 tumor; 8 hours): 6.78 ± 0.95 % injected dose
- Biokinetics: Tumor (HT-29 tumor; 8 hours): 3.10 ± 0.35 % injected dose/g organ
- Tumor/blood (HT-29 tumor; 8 hours): 15.31 ± 1.69
- Tumor/muscle (HT-29 tumor; 8 hours): 2.28 ± 0.39
- Biokinetics: Blood (HT-29 tumor; 24 hours): 0.26 ± 0.02 % injected dose/g organ
- Biokinetics: Brain (HT-29 tumor; 24 hours): 0.37 ± 0.09 % injected dose/g organ
- Biokinetics: Heart (HT-29 tumor; 24 hours): 1.58 ± 0.42 % injected dose/g organ
- Biokinetics: Intestines (HT-29 tumor; 24 hours): 11.14 ± 2.06 % injected dose/g organ
- Biokinetics: Kidney (HT-29 tumor; 24 hours): 76.4 ± 17.2 % injected dose/g organ
- Biokinetics: Liver (HT-29 tumor; 24 hours): 3.50 ± 0.81 % injected dose/g organ
- Biokinetics: Lungs (HT-29 tumor; 24 hours): 2.15 ± 0.49 % injected dose/g organ
- Biokinetics: Muscle (HT-29 tumor; 24 hours): 1.00 ± 0.25 % injected dose/g organ
- Biokinetics: Pancreas (HT-29 tumor; 24 hours): 7.23 ± 1.40 % injected dose/g organ
- Biokinetics: Spleen (HT-29 tumor; 24 hours): 0.27 ± 0.13 % injected dose/g organ
- Biokinetics: Stomach (HT-29 tumor; 24 hours): 9.33 ± 0.72 % injected dose
- Biokinetics: Tumor (HT-29 tumor; 24 hours): 5.93 ± 0.88 % injected dose/g organ
- Tumor/blood (HT-29 tumor; 24 hours): 22.63 ± 3.31
- Tumor/muscle (HT-29 tumor; 24 hours): 6.18 ± 1.45
- Biokinetics: Blood (MDA-MB-231 tumor): 0.29 ± 0.04 % injected dose/g organ
- Biokinetics: Brain (MDA-MB-231 tumor): 0.34 ± 0.07 % injected dose/g organ
- Biokinetics: Heart (MDA-MB-231 tumor): 1.13 ± 0.19 % injected dose/g organ
- Biokinetics: Intestines (MDA-MB-231 tumor): 9.15 ± 1.04 % injected dose/g organ
- Biokinetics: Kidney (MDA-MB-231 tumor): 59.8 ± 4.04 % injected dose/g organ
- Biokinetics: Liver (MDA-MB-231 tumor): 2.77 ± 0.45 % injected dose/g organ
- Biokinetics: Lungs (MDA-MB-231 tumor): 1.70 ± 0.57 % injected dose/g organ
- Biokinetics: Muscle (MDA-MB-231 tumor): 0.64 ± 0.06 % injected dose/g organ
- Biokinetics: Pancreas (MDA-MB-231 tumor): 3.37 ± 0.28 % injected dose/g organ
- Biokinetics: Spleen (MDA-MB-231 tumor): 0.27 ± 0.07 % injected dose/g organ
- Biokinetics: Stomach (MDA-MB-231 tumor): 8.43 ± 1.08 % injected dose
- Biokinetics: Tumor (MDA-MB-231 tumor): 1.56 ± 0.17 % injected dose/g organ
- Tumor/blood (MDA-MB-231 tumor): 5.51 ± 0.78
- Tumor/muscle (MDA-MB-231 tumor): 2.46 ± 0.39
